Results taken from article PMC8062632, “Structural studies of phosphorylation-dependent interactions between the V2R receptor and arrestin-2” (Nature Communications, 2021).

Target: arrestin2
Test: Cou-facilitated FRET assay for dissociation constant determination
Format: binding, bovine
Conditions: for Kd: 1 μM arrestin2 L293Cou with 1 μM Fab30, rising phosphopeptide concentrations, 25 °C, excitation 280 nm, ratio F450/F330; for reduction of affinity for arrestin2 compared with V2Rpp-FP: from FRET Kd values
Experimental: Steady state fluorescence was measured by a Varioskan flash (Thermo Scientific) instrument at 25 °C. […] Fluorescence intensity analysis of normalized ratio F450/F330 was calculated from relative fluorescence intensity at 450 and 330 nm. The dissociation constant was determined by fitting to the nonlinear regression equation y = Bmax [X] / (Kd + [X]) + NS[X] + Background as ours previously reported. […]
different phospho-peptide binding. a). Schematic flowchart of FRET assay for dissociation constant determination of arrestin-phospho-peptide interaction.
The synthetic fluorescent amino acid L-(7-hydroxycoumarin-4-yl) ethylglycine (Cou) was genetically incorporated into arrestin2 and served as a fluorescent acceptor for the emission light at 330 nm, and tryptophan served as the donor, which was excited at 280 nm. Cou produced its characteristic emission light at 450 nm. b). Analysis of the titration experiments monitored by FRET assay. The dissociation constant was determined by fitting to the nonlinear regression equation y = Bmax[X]/(Kd + [X]) + NS[X]+Background as previously described4. […]

Structure (SMILES) | Kd | reduction of affinity for arrestin2 compared with V2Rpp-FP
CC(C)C[C@H](NC(=O)[C@H](COP(=O)(O)O)NC(=O)[C@@H]1CCCN1C(=O)[C@@H]1CCCN1C(=O)[C@@H](NC(=O)[C@H](CCCNC(=N)N)NC(=O)CNC(=O)[C@H](CCCNC(=N)N)NC(=O)[C@H](C)N)[C@@H](C)O)C(=O)NCC(=O)N1CCC[C@H]1C(=O)N[C@@H](CCC(N)=O)C(=O)N[C@@H](CC(=O)O)C(=O)N[C@@H](CCC(=O)O)C(=O)N[C@@H](COP(=O)(O)O)C(=O)N[C@@H](CS)C(=O)N[C@H](C(=O)N[C@H](C(=O)N[C@@H](C)C(=O)N[C@@H](COP(=O)(O)O)C(=O)N[C@@H](COP(=O)(O)O)C(=O)N[C@@H](COP(=O)(O)O)C(=O)N[C@@H](CC(C)C)C(=O)N[C@@H](C)C(=O)N[C@@H](CCCCN)C(=O)N[C@@H](CC(=O)O)C(=O)N[C@H](C(=O)N[C@@H](CO)C(=O)N[C@@H](CO)C(=O)O)[C@@H](C)O)[C@@H](C)OP(=O)(O)O)[C@@H](C)OP(=O)(O)O [V2Rpp-1] | 3.3 ± 0.6 µM | approximately 3 fold
CC(C)C[C@H](NC(=O)[C@H](COP(=O)(O)O)NC(=O)[C@@H]1CCCN1C(=O)[C@@H]1CCCN1C(=O)[C@@H](NC(=O)[C@H](CCCNC(=N)N)NC(=O)CNC(=O)[C@H](CCCNC(=N)N)NC(=O)[C@H](C)N)[C@@H](C)OP(=O)(O)O)C(=O)NCC(=O)N1CCC[C@H]1C(=O)N[C@@H](CCC(N)=O)C(=O)N[C@@H](CC(=O)O)C(=O)N[C@@H](CCC(=O)O)C(=O)N[C@@H](CO)C(=O)N[C@@H](CS)C(=O)N[C@H](C(=O)N[C@H](C(=O)N[C@@H](C)C(=O)N[C@@H](COP(=O)(O)O)C(=O)N[C@@H](COP(=O)(O)O)C(=O)N[C@@H](COP(=O)(O)O)C(=O)N[C@@H](CC(C)C)C(=O)N[C@@H](C)C(=O)N[C@@H](CCCCN)C(=O)N[C@@H](CC(=O)O)C(=O)N[C@H](C(=O)N[C@@H](CO)C(=O)N[C@@H](CO)C(=O)O)[C@@H](C)O)[C@@H](C)OP(=O)(O)O)[C@@H](C)OP(=O)(O)O [V2Rpp-3] | 3 ± 0.4 µM | approximately 3 fold
CC(C)C[C@H](NC(=O)[C@H](COP(=O)(O)O)NC(=O)[C@@H]1CCCN1C(=O)[C@@H]1CCCN1C(=O)[C@@H](NC(=O)[C@H](CCCNC(=N)N)NC(=O)CNC(=O)[C@H](CCCNC(=N)N)NC(=O)[C@H](C)N)[C@@H](C)OP(=O)(O)O)C(=O)NCC(=O)N1CCC[C@H]1C(=O)N[C@@H](CCC(N)=O)C(=O)N[C@@H](CC(=O)O)C(=O)N[C@@H](CCC(=O)O)C(=O)N[C@@H](COP(=O)(O)O)C(=O)N[C@@H](CS)C(=O)N[C@H](C(=O)N[C@H](C(=O)N[C@@H](C)C(=O)N[C@@H](COP(=O)(O)O)C(=O)N[C@@H](COP(=O)(O)O)C(=O)N[C@@H](COP(=O)(O)O)C(=O)N[C@@H](CC(C)C)C(=O)N[C@@H](C)C(=O)N[C@@H](CCCCN)C(=O)N[C@@H](CC(=O)O)C(=O)N[C@H](C(=O)N[C@@H](CO)C(=O)N[C@@H](CO)C(=O)O)[C@@H](C)O)[C@@H](C)O)[C@@H](C)OP(=O)(O)O [V2Rpp-4] | 5.1 ± 0.7 µM | ~5 fold
